Consider six compounds from patent US10697970B2, “S100A9 levels for predicting lenalidomide and erythropoietin responsiveness” (H. LEE MOFFITT CANCER CENTER AND RESEARCH INSTITUTE, INC., priority 2015, dated 2020).

Assay [1] concerns normal BM-MNC. In words: qPCR of pyroptosis-associated genes in normal BM-MNC treated with rhS100A9. Particulars: normal BM-MNC (n=2), 1 μg/mL rhS100A9, 24 hours. It counts as cell-based, human. How it is done:
RNA was isolated from BM-MNC using the RNeasy Mini Kit (Qiagen). cDNA was produced using the iScript cDNA Synthesis Kit (Bio-Rad). Sequences for primers can be found in Table 1. GAPDH mRNA was used for transcript normalization. cDNA was amplified using the iQ SYBR Green Supermix and the CFX96 Real-Time PCR Detection System (Bio-Rad). PCR conditions were as follows: 10 minutes at 95° C., followed by 40 cycles of amplification (15 seconds at 95° C. and 1 minute at 60° C.). Relative gene expression was calculated using the […] method.

Assay [2] deals with U937 cells. Put plainly: Pore formation assay (ethidium bromide uptake) in U937 cells. Type of assay: cell-based. Particulars: U937, 12.5 μg/mL EB, 5 μg/mL rhS100A9.
Assay [3] concerns U937 cells. In words: a-caspase-1/NLRP3 confocal microscopy (inflammasome formation) in U937 cells. It counts as cell-based. Particulars: U937, 5 μg/mL rhS100A9, 24 hours.
For assay [4], the system named is BM cells isolated from WT mice. Put plainly: a-caspase-1/NLRP3 confocal microscopy in WT mouse BM cells treated with rhS100A9. Type of assay: cell-based. Particulars: 5 μg/mL rhS100A9, 24 hours. How it is done:
(§1) MDS and normal donor BM-MNC and mouse BM cells were stained with 30×FAM-FLICA® Caspase-1 solution at a ratio of 1:30 for 2 hours at 37° C. Cells were washed and cytospins were generated using a 5 minutes centrifugation at 450 rpm. Slides were fixed at 37° C. for 10 minutes using BD Cytofix Fixation Buffer (BD Biosciences), and subsequently washed using PBS. Cells were permeabilized with 0.1% Triton X-100/2% BSA in PBS for 15 minutes at room temperature. After washing with PBS, cells were blocked using 2% BSA in PBS for 30 minutes at room temperature, and washed again. Cells were incubated with the appropriate primary antibody overnight (1:400 for NLRP3, 1:20 for β-catenin) at 4° C. The next day, cells were washed with PBS and incubated with the appropriate secondary antibodies (1:500) for 1 hour at room temperature. After washing, cells were covered with ProLong Gold Antifade Reagent with DAPI prior to the addition of a coverslip (Life Technologies). Co-localization of a-caspase-1 with NLRP3 inflammasome complexes was assessed using a Leica TCS SP5 AOBS Laser Scanning Confocal microscope (Leica Microsystems). Analysis of the inflammasome images was performed with Definiens Developer 2.0 (Definiens AG). The software was used to segment cells based on brightness and size thresholds, followed by a watershed segmentation algorithm. Intensity values and Pearson's correlation coefficient were extracted from the segmented cells. For β-catenin image analysis, confocal images were imported into Definiens Tissue Studio v3.0, 64 Dual in .tif format. Cells were separated from background using the RGB thresholds. Nuclei were identified by setting thresholds in the DAPI channel. Typical cells averaged 60 microns. The red intensity (β-catenin) in the nucleus and cytoplasm was established by setting thresholds to low, medium and high in the red channel on a scale of 0-255 in the red channel.

Assay [5] deals with U937 cells. In words: Nuclear β-catenin confocal microscopy in U937 cells. Type of assay: cell-based. Particulars: U937, 5 μg/mL rhS100A9, 24 hours, compared to untreated cells.
The subject of the next assay is HepG2 cells. Put plainly: Epo elaboration by HepG2 cells (ELISA). It counts as cell-based, human. Particulars: for suppression of Epo production by the inflammatory protein alone: HepG2, vehicle control arm of lenalidomide experiment, S100A9 1 μg/ml or TNFα 10 ng/ml. On the procedure:
HepG2 cells, acquired from American Type Culture Collection (ATCC, Manassas, Va.), were grown in EMEM supplemented with 10% FBS and 1% penicillin/streptomycin solution. Cells were maintained at 37° C. under 5% CO2.
Quantitation of human S100A9/MRP14 in patient serum and supernatant of the HepG2 cell line was performed using CircuLex S100A9/MRP14 ELISA Kit (MBL, Nagano, Japan). Quantitative measurement of human TNFα and IL-1β from serum patients and supernatant of HepG2 cell line were performed using Human IL-1β ELISA Kit and Human TNFα ELISA Kit (Life Technologies, Carlsbad, Calif., USA). Quantitation of human Epo in patient serum and HepG2 cell line supernatant was performed using Human Erythropoietin ELISA kit (Stemcell Technologies, Vancouver, BC, Canada). All samples were performed in duplicate.

The test system of assay [6] is U937 cells. In words: ROS detection by flow cytometry in U937 cells. Type of assay: cell-based. Particulars: U937, 5 μg/mL rhS100A9, 24 hours, compared to untreated cells. An excerpt: (§2) ROS were detected using CM-H2DCFDA and Cell ROX® Deep Red Reagent according to manufacturer's protocol (Life Technologies).
The test system of assay [7] is U937 cells. In words: Pyroptosis / active caspase-1 flow cytometry in U937 cells treated with rhS100A9. Type of assay: cell-based. On the procedure: Monocytic U937 cells were treated with the indicated concentrations of rhS100A9 for 24 hours, or with 5 μg/mL rhS100A9 for the indicated time points. Subsequently, cells were stained with 30×FAM-FLICA® Caspase-1 solution at a ratio of 1:30 for 2 hours at 37° C. Cells were washed, resuspended in 1× binding buffer, and stained with Annexin-V:PE at a dilution of 1:30 for 15 minutes at room temperature. 1× binding buffer was added to a final volume of 350 μL. Sample acquisitions were carried out using a BD FACSCalibur flow cytometer (BD Biosciences). Data were analyzed using FlowJo 9.7.5 software.

For assay [8], the system named is U937 cells. Put plainly: Comet assay (DNA damage) in U937 cells. Type of assay: cell-based. Particulars: U937, 5 μg/mL rhS100A9, 24 hours, compared to untreated cells. How it is done:
Monocytic U937 cells were treated with 5 μg/mL rhS100A9 for 24 hr. DNA damage was measured by single cell gel electrophoresis using alkaline CometAssay® according to manufacturer's protocol (Trevigen Inc.).

Assay [9] deals with normal BM-MNC. In words: Nuclear β-catenin confocal microscopy in normal BM-MNC. It counts as cell-based, human. How it is done:
as §1, with “Intensity values and Pearson's correlation coefficient were extracted from the segmented cells. For β-catenin image analysis, confocal images were imported into Definiens Tissue Studio v3.0, 64 Dual in .tif format. Cells were separated from background using the RGB thresholds. Nuclei were identified by setting thresholds in the DAPI channel. Typical cells averaged 60 microns. The red intensity (β-catenin) in the nucleus and cytoplasm was established by setting thresholds to low, medium and high in the red channel on a scale of 0-255 in the red channel.” left out

For assay [10], the system named is normal BM-MNC. Put plainly: a-caspase-1/NLRP3 confocal microscopy in normal BM-MNC treated with rhS100A9. Type of assay: cell-based, human. Particulars: 5 μg/mL rhS100A9, 24 hours. On the procedure: as §1
In assay [11] the test system is SF3B1-K700E-expressing mutant BM cells. In words: ROS detection in SF3B1-K700E BM cells. It counts as cell-based, mouse.
Text: as §2

In another assay the test system is U2AF1-S34F mutant cells. In words: Nuclear β-catenin confocal microscopy in U2AF1-S34F mutant TF-1 cells. Type of assay: cell-based. Particulars: 24 hours treatment.
For assay [12], the system named is SF3B1-K700E mutant-expressing BM cells. In words: ASC staining flow cytometry (inflammasome formation) in SF3B1-K700E BM cells. It counts as cell-based, mouse. Particulars: 24 hours treatment. On the procedure:
Staining was carried out as described ([…], et al. J Immunol. 2015 194(1):455-62). Briefly, cell pellets were resuspended in 1 mL of prewarmed BD Permeabilization Buffer III, and incubated on ice for 30 minutes. Cells were washed 2× with staining buffer. Following washing, cells were stained with rabbit-anti-ASC primary antibodies at a 1:1500 dilution and incubated for 90 minutes. Cells were washed, stained with secondary antibodies at a dilution of 1:1500, and incubated for 45 minutes. Cells were washed, and sample acquisitions were carried out using a BD LSR II flow cytometer and FACSDiva software.

The test system is the same in assay [13]. In words: Nuclear β-catenin confocal microscopy in SF3B1-K700E BM cells. Particulars: 24 hours treatment. It counts as cell-based, mouse. How it is done:
as §1, with “Intensity values and Pearson's correlation coefficient were extracted from the segmented cells. For β-catenin image analysis, confocal images were imported into Definiens Tissue Studio v3.0, 64 Dual in .tif format. Cells were separated from background using the RGB thresholds. Nuclei were identified by setting thresholds in the DAPI channel. Typical cells averaged 60 microns. The red intensity (β-catenin) in the nucleus and cytoplasm was established by setting thresholds to low, medium and high in the red channel on a scale of 0-255 in the red channel.” left out

For a further assay, the system named is MDS patients. Particulars: MDS patients; cited from earlier work.
Setting [14] is: U937, increasing concentrations of rhS100A9, 24 hours.

With “rhS100A9: Recombinant human S100A9, DAMP/alarmin protein, ligand for CD33 and TLR4, generated as previously described”, the “expression of pyroptosis-associated genes” value in the assay with normal BM-MNC [1] is “significantly up-regulated”. Moreover, the “uptake of ethidium bromide” value with U937 cells [2] was “rapid and substantial uptake”. The “levels of NLRP3 inflammasome complexes” value in the assay with U937 cells [3] is reported as “markedly increased”. Also, the inflammasome complexes entry in [4] is “marked induction”. In addition, in assay [4] (versus controls), the “MFI of NLRP3” value is “significantly increased” and the “MFI of a-caspase-1” value was “significantly increased”. Besides, in the assay with U937 cells [5], the “levels of nuclear (activated) β-catenin” value was “marked increases”. The “reduction in Epo elaboration” value with HepG2 cells (HepG2, 1 μg/ml, 24 h exposure) is on record as 95%. Further, the Epo elaboration entry with HepG2 cells (HepG2, 10 to 20 μg/ml, 24 h exposure) is on record as “completely suppressed”. For the same compound, the “suppression of Epo production by the inflammatory protein alone” value in the assay with HepG2 cells was 95%. In addition, the “increase in mean percentage of ROS-positive cells” value with U937 cells [6] was found to be 2.9 fold. Besides, in the assay on U937 cells [7] (U937, 5 μg/mL rhS100A9 over time), the “activation of caspase-1” value is “time-dependent increase”. Further, in the assay with U937 cells [7] (setting [14]), the “a-caspase-1 MFI and percentage of a-caspase-1+ cells” value is recorded as “corresponding increase”; the “fraction of pyroptotic cells” value is listed as “concentration-dependent increase”. In addition, the “increase in DNA damage” value in the assay on U937 cells [8] is 4.1 fold. In addition, the “levels of nuclear β-catenin” value with normal BM-MNC [9] (normal BM-MNC, 5 μg/mL rhS100A9, 24 hours, compared to controls) is on record as “elevated levels”. In the assay with normal BM-MNC [10], the NLRP3 levels induced is recorded as 47.1 fold, the a-caspase-1 levels induced was determined as 2.5 fold and the “formation of NLRP3 inflammasomes” value is listed as 2.9 fold.

Regarding TNFα, the “reduction in Epo elaboration” value in the assay with HepG2 cells (HepG2, 10 ng/ml, 24 h exposure) turned out to be 40%. Also, the “suppression of Epo production by the inflammatory protein alone” value in the assay on HepG2 cells came to 30%.

Take “IL-1β: inflammatory cytokine interleukin-1β purchased from Sigma-Aldrich”: the “reduction in Epo elaboration” value in the assay with HepG2 cells (HepG2, 10 ng/ml, 24 h exposure) is on record as 60%.

In the case of `c1ccc2c(c1)[I+]c1ccccc1-2` [DPI], the “mean percentage of ROS+ cells and ROS MFI” value in assay [11] was “extinguished below the level of WT controls”. In addition, the “β-catenin activation in mutant cells” value in the assay on U2AF1-S34F mutant cells is recorded as “effectively reduced”. The “inflammasome formation (ASC)” value in assay [12] was “significantly reduced”. Further, in assay [13], the “percentage of cells with elevated levels of nuclear β-catenin” value is given as “significantly reduced”.

For the compound “erythropoietin: erythropoietin treatment for anemia in MDS”, in the assay with MDS patients, the “patients with MDS in whom treatment may improve anemia” value is listed as 15-20%.

For the compound `CC(=O)N[C@@H](CS)C(=O)O` [NAC, N-acetylcysteine], the “mean percentage of ROS+ cells and ROS MFI” value in assay [11] is given as “extinguished below the level of WT controls”. The “β-catenin activation in mutant cells” value with U2AF1-S34F mutant cells is reported as “effectively reduced”. Moreover, in assay [12], the “inflammasome formation (ASC)” value is recorded as “significantly reduced”. In addition, in the assay with normal BM-MNC [9] (normal BM-MNC treated with S100A9 plus anti-oxidant), the “S100A9-triggered nuclear translocation of β-catenin” value is reported as “abolished”. Besides, the “percentage of cells with elevated levels of nuclear β-catenin” value in [13] is “significantly reduced”.
